In patent US4804656A, “Novel androstane-17β-carboxylic acid esters” (Aktiebolaget Draco, priority 1985, dated 1989):

Target: T1, glucocorticoid receptor (Rattus norvegicus, UniProt P06536)
T1 construct: The thymus was removed and put into ice-cold saline; The tissue was homogenized in a Potter Elvehjem homogenizer; from tissue; host or cells: thymus of male Sprague-Dawley rats, 20,000×g supernatant of homogenate
T1 sequence (P06536 1-795): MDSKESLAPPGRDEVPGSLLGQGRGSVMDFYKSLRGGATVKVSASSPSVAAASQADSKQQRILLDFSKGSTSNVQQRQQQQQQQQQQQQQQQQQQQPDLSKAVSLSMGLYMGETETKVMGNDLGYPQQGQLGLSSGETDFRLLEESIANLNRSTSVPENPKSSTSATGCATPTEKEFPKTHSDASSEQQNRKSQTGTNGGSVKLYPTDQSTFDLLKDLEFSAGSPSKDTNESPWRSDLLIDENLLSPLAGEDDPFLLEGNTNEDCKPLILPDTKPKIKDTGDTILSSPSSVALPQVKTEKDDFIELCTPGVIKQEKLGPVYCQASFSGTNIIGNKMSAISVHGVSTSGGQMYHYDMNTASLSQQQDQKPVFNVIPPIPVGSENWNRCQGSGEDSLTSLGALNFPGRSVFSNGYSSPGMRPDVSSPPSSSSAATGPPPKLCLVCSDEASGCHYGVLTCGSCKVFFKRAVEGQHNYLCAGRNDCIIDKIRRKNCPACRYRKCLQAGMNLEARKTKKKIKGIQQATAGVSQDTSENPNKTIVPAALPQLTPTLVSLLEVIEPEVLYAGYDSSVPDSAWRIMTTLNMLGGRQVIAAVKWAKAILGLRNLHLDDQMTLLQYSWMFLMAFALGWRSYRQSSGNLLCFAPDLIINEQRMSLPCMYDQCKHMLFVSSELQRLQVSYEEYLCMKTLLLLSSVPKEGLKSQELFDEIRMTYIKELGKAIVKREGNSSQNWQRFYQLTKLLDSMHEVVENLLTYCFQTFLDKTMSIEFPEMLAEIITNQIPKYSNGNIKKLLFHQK
Experiment: Affinity to the glucocorticoid receptor: competition with 3H-labelled dexamethasone in rat thymus 20,000×g supernatant
Settings: curves compared at the 50% specific binding level, referenced to budesonide = 1, 3 nM 3H-dexamethasone, about 24 h at 0° C.
Description: All steroids according to the present invention are physiologically active compounds. The affinity of the novel androstane-17β-carboxylic acid esters to the glucocorticoid receptor has been used as a model for determination of the anti-inflammatory potency.
Male Sprague-Dawley rats, one to two months of age, were used throughout the investigation. The thymus was removed and put into ice-cold saline. The tissue was homogenized in a Potter Elvehjem homogenizer in 10 ml of a buffer containing 20 mM Tris, pH 7.4, 10% (w/v) glycerol, 1 mM EDTA, 20 mM NaMoO4, 10 mM mercaptoethanol. The homogenate was centrifuged for 15 min at 20,000×g. Portions of the 20,000×g supernatant (230 μl) were incubated for about 24 h at 0° C. with 100 μl phenylmethylsulphonylfluoride (an esterase inhibitor, final conc. 0.5 mM), 20 μl unlabelled competitor and 50 μl ^3 H-labelled dexamethasone (final conc. 3 nM). Bound and free steroid were separated by incubating the mixture with 60 μl 2.5% (w/v) charcoal and 0.25% (w/v) dextran T70 suspension in […], pH 7.4, 1 mM EDTA, and […] for 10 min at 0° C. Following a centrifugation at 500×g for 10 min, 230 μl of the supernatant was counted in 10 ml Insta-Gel in a Packard scintillation spectrophotometer. The supernatants were incubated with a) [^3 H]dexamethasone alone, b) [^3 H] dexamethasone plus 1000 fold excess of unlabelled dexamethasone and c) [^3 H] dexamethasone plus 0.03-300 fold "excess" competitor. The nonspecific binding was determined when 1000 fold excess of unlabelled dexamethasone was added to [^3 H]-labelled dexamethasone.
The radioactivity bound to the receptor in the presence of competitor divided by the radioactivity bound to the receptor in the absence of competitor multiplied by 100 gives the percentage specific binding of labelled dexamethasone. For each concentration of a competitor the percentage specifically bound radioactivity is plotted against the log of concentration of competitor. The curves are compared at the 50% specific binding level and reference to budesonide, which is assigned a relative binding affinity (RBA) of 1.

Compound: CCOC(=O)OC(C)OC(=O)[C@@]1(OC(=O)CC)[C@@H](C)C[C@H]2[C@@H]3CCC4=CC(=O)C=C[C@]4(C)[C@@]3(F)[C@@H](O)C[C@@]21C (single isomer, unassigned) [1 (epimer B), 1'-ethoxycarbonyloxyethyl 9α-fluoro-11β-hydroxy-16β-methyl-3-oxo-17α-propionyloxyandrosta-1,4-diene-17β-carboxylate]
- RBA (relative binding affinity): 0.80

Compound: CCC(=O)O[C@]1(C(=O)OC(C)OC(=O)NC(C)C)[C@@H](C)C[C@H]2[C@@H]3CCC4=CC(=O)C=C[C@]4(C)[C@@]3(F)[C@@H](O)C[C@@]21C (single isomer, unassigned) [2 (epimer B), 1'-isopropylcarbamoyloxyethyl 9α-fluoro-11β-hydroxy-16β-methyl-3-oxo-17α-propionyloxyandrosta-1,4-diene-17β-carboxylate]
- RBA (relative binding affinity): 0.14

Compound: CCCCC(=O)O[C@]1(C(=O)OC(C)OC(=O)N(CC)CC)[C@@H](C)C[C@H]2[C@@H]3CCC4=CC(=O)C=C[C@]4(C)[C@@]3(F)[C@@H](O)C[C@@]21C (single isomer, unassigned) [3 (epimer B), 1'-diethylcarbamoyloxyethyl 9αfluoro-11β-hydroxy-16β-methyl-3-oxo-17α-valeroyloxyandrosta-1,4-diene-17β-carboxylate]
- RBA (relative binding affinity): 0.47

Compound: CCC(=O)O[C@]1(C(=O)OC(C)OC(C)=O)[C@@H](C)C[C@H]2[C@@H]3CCC4=CC(=O)C=C[C@]4(C)[C@@]3(F)[C@@H](O)C[C@@]21C (single isomer, unassigned) [4 (epimer B), 1'-acetyloxyethyl 9α-fluoro-11β-hydroxy-16β-methyl-3-oxo-17α-propionyloxyandrosta-1,4-diene-17β-carboxylate]
- RBA (relative binding affinity): 0.69

Compound: CCC(=O)O[C@]1(C(=O)OC(C)OC(=O)OCc2ccc([N+](=O)[O-])cc2)[C@@H](C)C[C@H]2[C@@H]3CCC4=CC(=O)C=C[C@]4(C)[C@@]3(F)[C@@H](O)C[C@@]21C (single isomer, unassigned) [Example 19b]
- RBA (relative binding affinity): 0.53

Compound: CCOC(=O)OC(C)OC(=O)[C@@]1(OC(=O)CC)[C@H](C)C[C@H]2[C@@H]3C[C@H](F)C4=CC(=O)C=C[C@]4(C)[C@@]3(F)[C@@H](O)C[C@@]21C (single isomer, unassigned) [Example 26b]
- RBA (relative binding affinity): 0.45

Compound: CCC(=O)O[C@]1(C(=O)OC(C)OC(=O)OC)[C@@H](C)C[C@H]2[C@@H]3CCC4=CC(=O)C=C[C@]4(C)[C@@]3(F)[C@@H](O)C[C@@]21C (stereo partly shown) [Example 6b]
- RBA (relative binding affinity): 0.42

Compound: CCCOC(=O)OC(C)OC(=O)[C@@]1(OC(=O)CC)[C@@H](C)C[C@H]2[C@@H]3CCC4=CC(=O)C=C[C@]4(C)[C@@]3(F)[C@@H](O)C[C@@]21C (stereo partly shown) [Example 7b]
- RBA (relative binding affinity): 0.95

Compound: CCC(=O)O[C@]1(C(=O)OC(C)OC(=O)OC(C)C)[C@@H](C)C[C@H]2[C@@H]3CCC4=CC(=O)C=C[C@]4(C)[C@@]3(F)[C@@H](O)C[C@@]21C (stereo partly shown) [Example 8b]
- RBA (relative binding affinity): 1.50

Compound: C=CCOC(=O)OC(C)OC(=O)[C@@]1(OC(=O)CC)[C@@H](C)C[C@H]2[C@@H]3CCC4=CC(=O)C=C[C@]4(C)[C@@]3(F)[C@@H](O)C[C@@]21C (stereo partly shown) [Example 9b]
- RBA (relative binding affinity): 0.39

Compound: CCC(=O)O[C@]1(C(=O)OC(C)OC(=O)OCC(C)C)[C@@H](C)C[C@H]2[C@@H]3CCC4=CC(=O)C=C[C@]4(C)[C@@]3(F)[C@@H](O)C[C@@]21C (stereo partly shown) [Example 10b]
- RBA (relative binding affinity): 0.82

Compound: CCC(=O)O[C@]1(C(=O)OC(C)OC(=O)OC2CCC2)[C@@H](C)C[C@H]2[C@@H]3CCC4=CC(=O)C=C[C@]4(C)[C@@]3(F)[C@@H](O)C[C@@]21C (stereo partly shown) [Example 13b]
- RBA (relative binding affinity): 1.3

Compound: CCC(=O)O[C@]1(C(=O)OC(C)OC(=O)OC2CCCC2)[C@@H](C)C[C@H]2[C@@H]3CCC4=CC(=O)C=C[C@]4(C)[C@@]3(F)[C@@H](O)C[C@@]21C (stereo partly shown) [Example 14b]
- RBA (relative binding affinity): 1.2

Compound: CCC(=O)O[C@]1(C(=O)OC(C)OC(=O)OC2CCCCC2)[C@@H](C)C[C@H]2[C@@H]3CCC4=CC(=O)C=C[C@]4(C)[C@@]3(F)[C@@H](O)C[C@@]21C (stereo partly shown) [Example 15b]
- RBA (relative binding affinity): 0.54

Compound: C=C(C)COC(=O)OC(C)OC(=O)[C@@]1(OC(=O)CC)[C@@H](C)C[C@H]2[C@@H]3CCC4=CC(=O)C=C[C@]4(C)[C@@]3(F)[C@@H](O)C[C@@]21C (stereo partly shown) [Example 16b]
- RBA (relative binding affinity): 0.51

Compound: CCCCC(=O)O[C@]1(C(=O)OC(C)OC(=O)OC(C)C)[C@@H](C)C[C@H]2[C@@H]3CCC4=CC(=O)C=C[C@]4(C)[C@@]3(F)[C@@H](O)C[C@@]21C (stereo partly shown) [Example 22b]
- RBA (relative binding affinity): 0.77

Compound: CCOC(=O)OC(C)OC(=O)[C@@]1(OC(=O)CC)[C@H](C)C[C@H]2[C@@H]3CCC4=CC(=O)C=C[C@]4(C)[C@@]3(F)[C@@H](O)C[C@@]21C (stereo partly shown) [Example 24b]
- RBA (relative binding affinity): 0.55

Compound: CCOC(=O)OC(C)OC(=O)[C@@]1(OC(=O)CC)[C@@H](C)C[C@H]2[C@@H]3CCC4=CC(=O)C=C[C@]4(C)[C@@]3(Cl)[C@@H](O)C[C@@]21C (stereo partly shown) [Example 28b]
- RBA (relative binding affinity): 1.0

Compound: CCC(=O)O[C@]1(C(=O)OC(C)OC(=O)OCC2CC2)[C@@H](C)C[C@H]2[C@@H]3CCC4=CC(=O)C=C[C@]4(C)[C@@]3(Cl)[C@@H](O)C[C@@]21C (stereo partly shown) [Example 32b]
- RBA (relative binding affinity): 0.86
